The values that follow come from ChEMBL document CHEMBL5523756, “Molecular Transformers: Adaptive Multitarget Ligands for Esterase-Induced Transition from Analgesics to Anesthetics” (J Med Chem, 2024).

The target of series [1] is Sodium channel protein type 10 subunit alpha (Homo sapiens, UniProt Q9Y5Y9). Nature of the series: Binding affinity to Nav1.8 (unknown origin) expressed in HEK293T cells assessed as retention time of compound at 1 mg/ml by cell membrane chromatography. The series is classed as cell membranes.
In series [2] the test system is Mus musculus. Nature of the series: Analgesic effect in ICR mouse model of CFA-induced chronic inflammatory pain assessed as increase in paw withdrawal threshold at 0.07 mmol/kg, ip measured upto 90 mins by Von Frey test. The series is classed as functional, organism-based.
For another series, the system named is Rattus norvegicus. As to the kind of experiment: Analgesic activity in Sprague-Dawley rat model of mechanical nociceptive irritation assessed as response to tail pinch at 19 mg/kg administered as continuous infusion followed by maintenance at 3.25 mg/kg/min for 0 to 20 mins, 2.5 mg/kg/min for 20 to 30 mins and 2 mg/kg/min for 30 to 60 mins. It is filed as functional, organism-based. Particulars: route par.

The nature of series [3]: Toxicity in Sprague-Dawley rat assessed as effect on minute ventilation box at 19 mg/kg administered as continuous infusion followed by maintenance at 3.25 mg/kg/min for 0 to 20 mins, 2.5 mg/kg/min for 20 to 30 mins and 2 mg/kg/min for 30 to 60 mins and measured every 5 mins for 60 mins by whole-body plethysmography. It is filed as organism-based. Particulars: in vivo, other, 1 h, route par.

Series [4] in a line: Toxicity in Sprague-Dawley rat assessed as effect on end expiratory pause at 19 mg/kg administered as continuous infusion followed by maintenance at 3.25 mg/kg/min for 0 to 20 mins, 2.5 mg/kg/min for 20 to 30 mins and 2 mg/kg/min for 30 to 60 mins and measured every 5 mins for 60 mins by whole-body plethysmography. Particulars: in vivo, other, 1 h, route par. The series is classed as organism-based.

A short description of series [5]: Toxicity in Sprague-Dawley rat assessed as effect on end inspiratory pause at 19 mg/kg administered as continuous infusion followed by maintenance at 3.25 mg/kg/min for 0 to 20 mins, 2.5 mg/kg/min for 20 to 30 mins and 2 mg/kg/min for 30 to 60 mins and measured every 5 mins for 60 mins by whole-body plethysmography. The series is classed as organism-based. Particulars: in vivo, other, 1 h, route par.

A short description of series [6]: Toxicity in Sprague-Dawley rat assessed as reduction in heart rate at 19 mg/kg administered as continuous infusion followed by maintenance at 3.25 mg/kg/min for 0 to 20 mins, 2.5 mg/kg/min for 20 to 30 mins and 2 mg/kg/min for 30 to 60 mins by electrocardiogram recording. The series is classed as organism-based. On the set-up: scale not given: the % may be the effect or the level left. Particulars: in vivo, other, 1 h, route par.

Series [7] can be described thus: Toxicity in Sprague-Dawley rat assessed as Q-T interval prolongation at 19 mg/kg administered as continuous infusion followed by maintenance at 3.25 mg/kg/min for 0 to 20 mins, 2.5 mg/kg/min for 20 to 30 mins and 2 mg/kg/min for 30 to 60 mins by electrocardiogram recording. Particulars: in vivo, other, 1 h, route par. It is filed as organism-based.
Series [8] has as its system Mus musculus. As to the kind of experiment: Antiseizure activity in iv dosed ICR mouse model of PTZ-induced acute seizure assessed as mortality rate preadministered for 1 min followed by PTZ treatment and measured for 7 days (reference value: 83.3%). The series is classed as functional. Particulars: time 7 day.
Series [9] in a line: Toxicity in Sprague-Dawley rat assessed as effect on AST level at 19 mg/kg administered as continuous infusion followed by maintenance at 3.25 mg/kg/min for 0 to 20 mins, 2.5 mg/kg/min for 20 to 30 mins and 2 mg/kg/min for 30 to 60 mins. Particulars: in vivo, other, 1 h, route par. It is filed as organism-based.
Series [10] in a line: Toxicity in Sprague-Dawley rat assessed as urea level at 19 mg/kg administered as continuous infusion followed by maintenance at 3.25 mg/kg/min for 0 to 20 mins, 2.5 mg/kg/min for 20 to 30 mins and 2 mg/kg/min for 30 to 60 mins. It is filed as organism-based. Particulars: in vivo, other, 1 h, route par.
Series [11] is described as follows: Toxicity in Sprague-Dawley rat assessed as histopathological changes in liver at 19 mg/kg administered as continuous infusion followed by maintenance at 3.25 mg/kg/min for 0 to 20 mins, 2.5 mg/kg/min for 20 to 30 mins and 2 mg/kg/min for 30 to 60 mins and measured after 14 days by H and E staining based analysis. Particulars: in vivo, other, 336 h, route par, time 14 day. It is filed as organism-based.

A short description of series [12]: Toxicity in Sprague-Dawley rat assessed as histopathological changes in heart at 19 mg/kg administered as continuous infusion followed by maintenance at 3.25 mg/kg/min for 0 to 20 mins, 2.5 mg/kg/min for 20 to 30 mins and 2 mg/kg/min for 30 to 60 mins and measured after 14 days by H and E staining based analysis. Particulars: in vivo, other, 336 h, route par, time 14 day. The series is classed as organism-based.

A further series addresses Cytochrome P450 2D6 (Homo sapiens, UniProt P10635). As to the kind of experiment: Inhibition of CYP2D6 (unknown origin) using dextromethorphan as substrate at 10 uM. The series is classed as ADME.
For another series, the target named is T1, CYP1A2 (Homo sapiens, UniProt P05177).
T1 sequence (P05177 whole entry): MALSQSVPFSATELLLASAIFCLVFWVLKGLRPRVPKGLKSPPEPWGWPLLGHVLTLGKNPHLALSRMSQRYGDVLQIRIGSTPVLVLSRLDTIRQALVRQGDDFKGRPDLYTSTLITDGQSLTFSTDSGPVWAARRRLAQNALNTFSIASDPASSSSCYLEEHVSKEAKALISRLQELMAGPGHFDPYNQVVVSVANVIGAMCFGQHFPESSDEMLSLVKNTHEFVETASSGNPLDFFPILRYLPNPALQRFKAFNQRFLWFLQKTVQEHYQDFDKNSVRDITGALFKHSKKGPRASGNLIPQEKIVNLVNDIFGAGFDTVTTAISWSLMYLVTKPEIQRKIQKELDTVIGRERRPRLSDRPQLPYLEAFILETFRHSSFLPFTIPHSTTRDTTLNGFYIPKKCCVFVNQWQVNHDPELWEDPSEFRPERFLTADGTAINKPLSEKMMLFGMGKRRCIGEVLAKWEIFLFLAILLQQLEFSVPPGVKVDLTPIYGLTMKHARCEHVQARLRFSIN
Nature of the series: Inhibition of CYP1A2 (unknown origin) using phenacetin as substrate at 10 uM relative to control. It is filed as ADME. Particulars: probe phenacetin.

Series [13] can be described thus: Stability of compound in 0.1M PBS at 1 mg/ml measured upto 360 mins by HPLC analysis. The series is classed as physicochemical. Particulars: buffer, 6 h.
The nature of series [14]: Stability in mouse plasma assessed as half life at 1 mg/ml measured upto 360 mins by HPLC analysis. The series is classed as ADME, cell-free.
The nature of series [15]: Drug metabolism in rat liver microsomes assessed as propofol release by measuring half life at 1 mg/ml measured upto 360 mins by LC-MS analysis. Particulars: 6 h. The series is classed as ADME, Microsome.
Series [16] can be described thus: Drug metabolism in human liver microsomes assessed as propofol release by measuring half life at 1 mg/ml measured upto 360 mins by LC-MS analysis. The series is classed as ADME, Microsome. Particulars: 6 h.
Series [17] addresses Sodium channel protein type 5 subunit alpha (Homo sapiens, UniProt Q14524). As to the kind of experiment: Inhibition of Nav1.5 channel (unknown origin) at half inactivation state at -120 mV conditioning pulse by voltage clamp electrophysiological recording. It is filed as toxicity.
The subject of series [18] is DRG neuron. Nature of the series: Modulation of CFA-induced male ICR mouse DRG neuron excitability assessed as reduction in action potential firing frequency at 10 uM by whole cell […] assay. It is filed as functional, cell-based.
For series [19], the system named is DRG neuron. Nature of the series: Modulation of CFA-induced male ICR mouse DRG neuron excitability assessed as reduction in action potential's rheobase at 10 uM by whole cell […] assay. The series is classed as functional, cell-based.
Series [20] has as its system DRG neuron. As to the kind of experiment: Modulation of CFA-induced male ICR mouse DRG neuron excitability assessed as reduction in resting membrane potential at 10 uM by whole cell […] assay. It is filed as functional, cell-based.

Molecules are shown by their SMILES. Activity calls are given as the source filed them. A value given as a limit tells only on which side of the number the result lay.

Sequence of Sodium channel protein type 5 subunit alpha (Q14524 whole entry): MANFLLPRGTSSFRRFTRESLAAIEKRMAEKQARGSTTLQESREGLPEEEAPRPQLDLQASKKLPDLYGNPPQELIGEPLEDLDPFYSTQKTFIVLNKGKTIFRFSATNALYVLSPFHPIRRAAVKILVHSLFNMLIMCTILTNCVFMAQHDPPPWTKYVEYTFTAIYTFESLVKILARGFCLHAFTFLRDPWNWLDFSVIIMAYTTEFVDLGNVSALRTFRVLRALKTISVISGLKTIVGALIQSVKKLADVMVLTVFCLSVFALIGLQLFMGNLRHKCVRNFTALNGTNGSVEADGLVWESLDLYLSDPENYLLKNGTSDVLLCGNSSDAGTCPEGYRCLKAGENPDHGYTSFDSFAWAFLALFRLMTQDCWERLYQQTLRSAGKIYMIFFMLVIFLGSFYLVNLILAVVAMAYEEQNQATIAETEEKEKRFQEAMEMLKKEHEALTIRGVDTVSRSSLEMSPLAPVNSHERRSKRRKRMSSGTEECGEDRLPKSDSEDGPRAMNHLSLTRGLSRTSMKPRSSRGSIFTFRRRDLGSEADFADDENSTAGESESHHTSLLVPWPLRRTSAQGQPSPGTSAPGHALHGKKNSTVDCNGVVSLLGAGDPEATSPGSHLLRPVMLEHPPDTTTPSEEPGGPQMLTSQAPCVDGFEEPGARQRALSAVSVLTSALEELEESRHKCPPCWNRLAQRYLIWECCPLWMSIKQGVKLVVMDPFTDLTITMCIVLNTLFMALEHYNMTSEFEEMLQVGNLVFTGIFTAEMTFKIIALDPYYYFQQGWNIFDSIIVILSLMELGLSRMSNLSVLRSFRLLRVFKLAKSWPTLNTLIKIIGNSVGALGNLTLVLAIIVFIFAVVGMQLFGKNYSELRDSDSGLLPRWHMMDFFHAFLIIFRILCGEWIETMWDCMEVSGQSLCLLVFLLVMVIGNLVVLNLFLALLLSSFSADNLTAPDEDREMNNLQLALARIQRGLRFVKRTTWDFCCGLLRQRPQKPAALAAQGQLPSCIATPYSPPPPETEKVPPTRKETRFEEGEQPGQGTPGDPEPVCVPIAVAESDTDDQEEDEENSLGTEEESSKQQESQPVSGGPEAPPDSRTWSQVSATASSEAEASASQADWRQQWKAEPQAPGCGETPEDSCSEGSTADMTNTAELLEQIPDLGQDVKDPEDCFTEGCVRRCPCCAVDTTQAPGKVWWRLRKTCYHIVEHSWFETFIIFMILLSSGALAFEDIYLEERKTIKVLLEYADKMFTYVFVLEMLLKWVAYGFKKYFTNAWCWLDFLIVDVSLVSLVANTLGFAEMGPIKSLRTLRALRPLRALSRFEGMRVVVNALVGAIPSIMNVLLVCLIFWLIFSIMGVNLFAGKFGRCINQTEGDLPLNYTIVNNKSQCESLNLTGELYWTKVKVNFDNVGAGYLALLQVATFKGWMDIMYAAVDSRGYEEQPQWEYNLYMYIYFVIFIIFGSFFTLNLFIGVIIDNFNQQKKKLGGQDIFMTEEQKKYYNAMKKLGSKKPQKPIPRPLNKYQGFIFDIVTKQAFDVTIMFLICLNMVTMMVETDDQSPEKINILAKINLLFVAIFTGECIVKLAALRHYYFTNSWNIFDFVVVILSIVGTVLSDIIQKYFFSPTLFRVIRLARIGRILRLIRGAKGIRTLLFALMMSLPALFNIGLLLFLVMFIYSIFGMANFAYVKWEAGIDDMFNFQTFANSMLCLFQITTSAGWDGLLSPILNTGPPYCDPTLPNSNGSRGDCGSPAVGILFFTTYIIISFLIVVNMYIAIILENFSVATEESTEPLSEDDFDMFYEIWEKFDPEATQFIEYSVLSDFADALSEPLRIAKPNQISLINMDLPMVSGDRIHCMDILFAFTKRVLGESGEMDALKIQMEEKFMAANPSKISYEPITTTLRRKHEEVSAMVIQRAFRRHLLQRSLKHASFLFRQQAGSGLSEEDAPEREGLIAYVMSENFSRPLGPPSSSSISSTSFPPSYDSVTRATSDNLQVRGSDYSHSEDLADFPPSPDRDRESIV
Sequence of Sodium channel protein type 10 subunit alpha (Q9Y5Y9 whole entry, looked up): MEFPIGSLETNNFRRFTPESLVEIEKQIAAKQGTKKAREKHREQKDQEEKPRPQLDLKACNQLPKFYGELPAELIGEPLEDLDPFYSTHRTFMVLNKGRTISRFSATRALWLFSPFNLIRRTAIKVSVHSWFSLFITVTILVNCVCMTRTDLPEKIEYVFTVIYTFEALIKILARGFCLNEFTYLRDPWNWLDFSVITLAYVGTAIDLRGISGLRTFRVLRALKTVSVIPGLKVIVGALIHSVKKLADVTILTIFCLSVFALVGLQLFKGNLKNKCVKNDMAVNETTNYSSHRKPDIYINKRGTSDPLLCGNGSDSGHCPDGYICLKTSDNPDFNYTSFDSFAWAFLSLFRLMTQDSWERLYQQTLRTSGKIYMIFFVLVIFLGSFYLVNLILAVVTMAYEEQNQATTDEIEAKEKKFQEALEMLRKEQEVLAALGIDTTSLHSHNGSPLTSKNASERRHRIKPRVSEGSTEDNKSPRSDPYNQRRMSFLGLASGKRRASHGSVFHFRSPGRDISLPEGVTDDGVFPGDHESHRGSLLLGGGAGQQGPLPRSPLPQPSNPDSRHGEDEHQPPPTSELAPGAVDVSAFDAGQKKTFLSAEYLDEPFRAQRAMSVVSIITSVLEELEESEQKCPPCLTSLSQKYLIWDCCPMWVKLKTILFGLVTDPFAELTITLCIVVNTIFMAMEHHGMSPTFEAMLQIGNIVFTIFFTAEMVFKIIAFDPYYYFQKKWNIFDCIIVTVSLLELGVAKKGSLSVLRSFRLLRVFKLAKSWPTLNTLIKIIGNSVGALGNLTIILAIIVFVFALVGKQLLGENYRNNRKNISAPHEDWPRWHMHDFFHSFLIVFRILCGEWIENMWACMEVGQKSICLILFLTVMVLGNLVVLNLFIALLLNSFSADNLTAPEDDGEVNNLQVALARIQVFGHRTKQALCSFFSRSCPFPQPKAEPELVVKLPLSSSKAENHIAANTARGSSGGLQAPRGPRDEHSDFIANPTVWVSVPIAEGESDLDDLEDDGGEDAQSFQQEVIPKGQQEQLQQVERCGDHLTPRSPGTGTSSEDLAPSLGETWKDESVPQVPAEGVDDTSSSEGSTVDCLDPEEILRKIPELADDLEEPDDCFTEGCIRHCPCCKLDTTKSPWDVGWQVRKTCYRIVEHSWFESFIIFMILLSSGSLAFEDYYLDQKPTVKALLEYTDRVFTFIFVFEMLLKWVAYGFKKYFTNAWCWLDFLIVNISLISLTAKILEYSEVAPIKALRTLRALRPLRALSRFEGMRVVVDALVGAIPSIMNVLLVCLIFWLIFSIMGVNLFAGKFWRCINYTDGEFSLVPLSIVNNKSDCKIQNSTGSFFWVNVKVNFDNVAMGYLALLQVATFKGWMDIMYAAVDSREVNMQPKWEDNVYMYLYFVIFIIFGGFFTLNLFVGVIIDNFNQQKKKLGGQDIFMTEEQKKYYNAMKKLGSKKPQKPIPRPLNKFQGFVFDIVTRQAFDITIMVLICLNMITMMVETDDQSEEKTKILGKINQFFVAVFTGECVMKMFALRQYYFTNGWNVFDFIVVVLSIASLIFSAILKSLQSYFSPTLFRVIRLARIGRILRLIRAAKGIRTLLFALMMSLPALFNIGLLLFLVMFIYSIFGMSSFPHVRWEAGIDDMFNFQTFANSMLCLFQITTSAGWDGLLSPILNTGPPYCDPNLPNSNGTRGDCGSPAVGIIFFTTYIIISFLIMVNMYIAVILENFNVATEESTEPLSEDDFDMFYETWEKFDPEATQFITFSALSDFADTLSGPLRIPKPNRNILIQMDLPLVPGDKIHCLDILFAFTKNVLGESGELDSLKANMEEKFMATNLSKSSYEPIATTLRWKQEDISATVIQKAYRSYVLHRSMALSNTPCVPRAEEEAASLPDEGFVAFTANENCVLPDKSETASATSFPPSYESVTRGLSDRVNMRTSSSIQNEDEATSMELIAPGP
Sequence of Cytochrome P450 2D6 (P10635 whole entry): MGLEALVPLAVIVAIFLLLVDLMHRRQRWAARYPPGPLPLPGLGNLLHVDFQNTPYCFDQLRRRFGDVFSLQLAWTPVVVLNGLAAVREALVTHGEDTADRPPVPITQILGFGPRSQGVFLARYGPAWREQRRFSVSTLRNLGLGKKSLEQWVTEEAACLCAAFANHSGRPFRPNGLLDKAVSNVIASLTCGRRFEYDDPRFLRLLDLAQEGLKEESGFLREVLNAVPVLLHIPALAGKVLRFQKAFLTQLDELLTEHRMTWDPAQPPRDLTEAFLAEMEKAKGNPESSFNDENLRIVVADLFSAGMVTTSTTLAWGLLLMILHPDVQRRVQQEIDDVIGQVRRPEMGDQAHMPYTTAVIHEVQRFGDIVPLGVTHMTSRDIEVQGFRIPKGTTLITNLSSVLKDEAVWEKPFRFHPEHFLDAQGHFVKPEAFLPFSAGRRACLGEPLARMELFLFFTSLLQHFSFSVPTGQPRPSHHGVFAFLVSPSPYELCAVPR

One may read the inhibition as the change of the read-out against control, counted positive when it falls. As a reminder, the half-life is the time in which the quantity being followed falls by half. As usually defined, the IC50 is the concentration at which inhibition is half-maximal. As for `CCN(CC)CCOC(=O)Oc1c(C(C)C)cccc1C(C)C.Cl`, the Retention time in series [1] amounted to 112 min. The outcome in the series with Mus musculus [2], with Rattus norvegicus and in the series on DRG neuron [18] was Active. The Activity entry in series [3] was “Non-Toxic”; in [4], “Non-Toxic”; in series [5], “Non-Toxic”; in series [6], below 20%; in series [7] it was “Non-Toxic”; with Mus musculus [8], 0%. Besides, the Activity entry is on record as “Non-Toxic” in series [9], 11.03 mmol/L in series [10], “Non-Toxic” in series [11] and “Non-Toxic” in series [12]. The “inhibition (INH)” value against Cytochrome P450 2D6 was “Not Active”. The compound further displayed an inhibition at 10 µM at CYP1A2 of 26.2%. Further, the Stability entry in series [13] was “Stable”. Besides, in series [14], the half-life at 1 mg/ml was determined as 19.2 min. Besides, the figures for the t1/2 in series [15] and in [16] were 81.09 min and 54.63 min, respectively. Moreover, 20.5 µM corresponded to half-maximal inhibition in series [17] (IC50). Also, the outcome in the series on DRG neuron [19] and with DRG neuron [20] was inactive.
